Source: ChEMBL document CHEMBL1201862, “PubChem BioAssay data set” (2004)
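Tested at 5 concentrations; 48 h exposure; 96-well plates; endpoints linearly interpolated, else capped at highest concentration. At the GI50, growth is halved.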 Active and inactive are the calls of the source. No stated cut-off is given here; in the data, active = GI50 up to about 1.1 µM and inactive = higher.

How the values were obtained:
Experiment in all cases: inhibition of tumour cell growth, NCI panel, 48 h
[1] = tested on: 786-0
[2] = tested on: A498
[3] = tested on: ACHN
[4] = tested on: EKVX
[5] = tested on: HCT-116
[6] = tested on: HOP-92
[7] = tested on: HT-29
[8] = tested on: MOLT-4
[9] = tested on: Malme-3M
[10] = tested on: NCI-H460
[11] = tested on: OVCAR-4
[12] = tested on: OVCAR-5
[13] = tested on: OVCAR-8
[14] = tested on: RXF 393
[15] = tested on: SF-295
[16] = tested on: SK-MEL-5
[17] = tested on: SNB-75
[18] = tested on: UACC-257

Compound | GI50 [1] | GI50 [2] | GI50 [3] | GI50 [4] | GI50 [5] | GI50 [6] | GI50 [7] | GI50 [8] | GI50 [9] | GI50 [10] | GI50 [11] | GI50 [12] | GI50 [13] | GI50 [14] | GI50 [15] | GI50 [16] | GI50 [17] | GI50 [18]
Cc1cccc2c1NC(=S)[C@@H]1CCCN1C2=O | > 100 µM (inactive) | > 100 µM (inactive) | > 100 µM (inactive) | > 100 µM (inactive) | > 100 µM (inactive) | > 100 µM (inactive) | > 100 µM (inactive) | > 100 µM (inactive) | > 100 µM (inactive) | > 100 µM (inactive) | > 100 µM (inactive) | > 100 µM (inactive) | > 100 µM (inactive) | > 100 µM (inactive) | > 100 µM (inactive) | > 100 µM (inactive) | 54 µM (inactive) | > 100 µM (inactive)
CC(C)[Si](OCC/C=C/C1CCC(=O)C1C(O)C1CCCCC1)(C(C)C)C(C)C (stereo unspecified) | 15.9 µM (inactive) | 18.3 µM (inactive) | 14.8 µM (inactive) | 15.5 µM (inactive) | 14.7 µM (inactive) | 11.8 µM (inactive) | 13.2 µM (inactive) | 12.5 µM (inactive) | 14.8 µM (inactive) | 17 µM (inactive) | 20.1 µM (inactive) | 18.2 µM (inactive) | 15.2 µM (inactive) | 8.89 µM (inactive) | 16 µM (inactive) | 14.3 µM (inactive) | 15.2 µM (inactive) | 15.4 µM (inactive)
O=C(Nc1sccc1S(=O)(=O)c1ccc(Cl)cc1)c1ccccc1 | > 100 µM (inactive) | > 100 µM (inactive) | > 100 µM (inactive) | > 100 µM (inactive) | > 100 µM (inactive) | > 100 µM (inactive) | > 100 µM (inactive) | > 100 µM (inactive) | > 100 µM (inactive) | > 100 µM (inactive) | 45 µM (inactive) | > 100 µM (inactive) | > 100 µM (inactive) | > 100 µM (inactive) | > 100 µM (inactive) | > 100 µM (inactive) | 98.6 µM (inactive) | 85.1 µM (inactive)
CCOC(=O)c1c(SCCN(CC)CC)n(-c2ccccc2)c(=S)n(-c2ccccc2)c1=O | 1.77 µM (inactive) | 15.2 µM (inactive) | 1.73 µM (inactive) | 9.59 µM (inactive) | 3.87 µM (inactive) | 1.92 µM (inactive) | 4.47 µM (inactive) | 1.09 µM (active) | 1.42 µM (inactive) | 6.93 µM (inactive) | 9.66 µM (inactive) | 30.3 µM (inactive) | 2.64 µM (inactive) | 1.72 µM (inactive) | 34.2 µM (inactive) | 2.61 µM (inactive) | 8.81 µM (inactive) | 2.28 µM (inactive)
CCOC1C=CC(=O)C(CO)O1 (stereo unspecified) | 4.26 µM (inactive) | 26.2 µM (inactive) | 10.8 µM (inactive) | 14.3 µM (inactive) | 5.12 µM (inactive) | 2.57 µM (inactive) | 8.26 µM (inactive) | 6.65 µM (inactive) | 12.2 µM (inactive) | 14.5 µM (inactive) | 8.97 µM (inactive) | 18.1 µM (inactive) | 11.6 µM (inactive) | 7.55 µM (inactive) | 17.9 µM (inactive) | 21.1 µM (inactive) | 15.3 µM (inactive) | 5.86 µM (inactive)
C=C(C)[C@@H]1CC[C@]2(C(=O)O)CC[C@]3(C)[C@H](CC[C@@H]4[C@@]5(C)CC(=O)C(C)(C)[C@@H]5CC[C@]43C)[C@@H]12 | 7 µM (inactive) | 5.6 µM (inactive) | 7.53 µM (inactive) | 9.35 µM (inactive) | 4.01 µM (inactive) | 11.1 µM (inactive) | 7.19 µM (inactive) | 4.98 µM (inactive) | 8.05 µM (inactive) | 4.95 µM (inactive) | 15 µM (inactive) | 11 µM (inactive) | 11.2 µM (inactive) | 7.87 µM (inactive) | 6.47 µM (inactive) | 5.7 µM (inactive) | 10.6 µM (inactive) | 7.55 µM (inactive)
CCOC(=O)CCN1C(=O)C(=O)N(c2ccc(OC)cc2)C1=S | > 100 µM (inactive) | > 100 µM (inactive) | > 100 µM (inactive) | > 100 µM (inactive) | > 100 µM (inactive) | > 100 µM (inactive) | > 100 µM (inactive) | > 100 µM (inactive) | > 100 µM (inactive) | 53.5 µM (inactive) | 63 µM (inactive) | > 100 µM (inactive) | > 100 µM (inactive) | > 100 µM (inactive) | > 100 µM (inactive) | > 100 µM (inactive) | > 100 µM (inactive) | > 100 µM (inactive)
